# Reference: PMC6362118, “Pharmacophore-guided discovery of CDC25 inhibitors causing cell cycle arrest and tumor regression” (Scientific Reports, 2019)
# Where two headings read alike, the source gives them in different places.
# Key:
# [1] = target: T1, CDC25A (Homo sapiens, UniProt P30304); assay: Enzymatic assay (OMFP substrate) on recombinant CDC25A; type: biochemical; details: for remaining activity at 20 µM: compound 20 µM, relative to DMSO control; for IC50: dose-response on recombinant CDC25A
# T1 construct: GST (pGEX vector) (N); made in house; host or cells: E. coli BL21
# T1 sequence (P30304 1-524): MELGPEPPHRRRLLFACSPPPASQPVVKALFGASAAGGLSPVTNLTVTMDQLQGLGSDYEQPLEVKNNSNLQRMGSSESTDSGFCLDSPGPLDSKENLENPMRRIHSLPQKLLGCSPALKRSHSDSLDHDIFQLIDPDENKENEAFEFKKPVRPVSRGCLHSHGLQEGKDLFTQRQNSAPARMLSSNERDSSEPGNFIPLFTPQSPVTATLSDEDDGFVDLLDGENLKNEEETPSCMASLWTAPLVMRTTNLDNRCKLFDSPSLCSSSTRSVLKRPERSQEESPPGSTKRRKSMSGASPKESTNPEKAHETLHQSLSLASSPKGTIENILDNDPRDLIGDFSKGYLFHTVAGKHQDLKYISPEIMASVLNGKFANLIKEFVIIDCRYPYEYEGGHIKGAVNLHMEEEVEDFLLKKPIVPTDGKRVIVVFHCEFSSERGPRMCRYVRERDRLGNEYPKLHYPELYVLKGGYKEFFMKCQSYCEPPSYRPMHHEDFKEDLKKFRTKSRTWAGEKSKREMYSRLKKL
# Protocol: 57 UPD compounds were dissolved in DMSO at 10 mM stock concentration and stored in
# 60 Expression and purification of CDC25 phosphatases - CDC25A (kind gift of I.
# 61 Hoffmann, Heidelberg, Germany), CDC25B and CDC25C (kind gift of B. Gabrielli,
# 62 Queensland, Australia) in pGEX were expressed in E. coli BL21 cells and purified on 1
# 63 ml Glutathione Sepharose 4 Fast Flow columns as described 1.
# 65 Enzymatic assays - CDC25A, CDC25B and CDC25C were appropriately diluted in 10
# 66 mM Tris-HCl pH 8.0, 50 mM NaCl and assayed in 20 mM Tris-HCl pH 8.0, 75 mM
# 67 NaCl, 0.5 mM EGTA, 1 mM DTT, 0.1 mg/ml BSA and defined concentrations of
# 68 compounds. Reactions were started by addition of the substrate OMFP (0.1 mM). Assays
# 69 were carried out at room temperature in duplicate or triplicate using transparent-bottom,
# 70 V-shaped 96 well plates and read at defined intervals on a Molecular Devices
# 71 SpectraMax microplate reader (ex: 490 nm / em: 525 nm). IC50 and kinetic parameters
# 72 calculated from Lineweaver-Burk double-reciprocal plots of the data were obtained using
# 73 GraphPad Prism software. […]
# [2] = test system: PTPN9 (MEG2); assay: Compound profiling, phosphatase panel (Eurofins); type: biochemical; details: relative to DMSO
# Description: (§1) 125 Compound profiling - Selected compounds were profiled against a panel of protein
# (§2) 126 phosphatases at Eurofins Pharma Discovery Services Ltd., Dundee, UK.
# [3] = test system: TMDP (DUSP13); assay: Compound profiling, phosphatase panel (Eurofins); type: biochemical; details: relative to DMSO
# Description: as §1, §2
# [4] = test system: PP1a; assay: Compound profiling, phosphatase panel (Eurofins); type: biochemical; details: relative to DMSO
# Description: as §1, §2
# [5] = test system: HeLa cells; assay: Flow cytometric analysis of cell cycle progression (DNA content) in HeLa cells; type: cell-based; details: for progression through S-phase: HeLa, 10 µM added at release from double-thymidine block (early S-phase); for effect on cell cycle distribution (DNA content): asynchronous HeLa cells, 10 μM, 15 h; for effect on the G2/M transition: double-thymidine synchronized HeLa, 10 μM added 5 h upon release, analysed 12 h post-release
# Protocol: Reactions were started by addition of the substrate OMFP (0.1 mM). Assays 69 were carried out at room temperature in duplicate or triplicate using transparent-bottom, 70 V-shaped 96 well plates and read at defined intervals on a Molecular Devices 71 SpectraMax microplate reader (ex: 490 nm / em: 525 nm). IC50 and kinetic parameters 72 calculated from Lineweaver-Burk double-reciprocal plots of the data were obtained using 73 GraphPad Prism software. 74 75 Cell culture - Wild-type HeLa and Kyoto HeLa cells stably expressing mCherry-H2B 76 were maintained in DMEM+L-Glutamine (Gibco, Life Technologies, USA) 77 supplemented with 5% fetal calf serum (FCS) (Gibco) and penicillin-streptomycin (100 […] A549 and Colo741 were grown and maintained like HeLa 79 cells but with 10% FCS. HCT116 were maintained in McCoy's medium supplemented 80 with 10% FCS and penicillin-streptomycin. U2OS-Tet-OFF cells expressing HA-CDC25 81 were grown and maintained in DMEM+L-Glutamine, 10% Tet-free FCS and penicillin- 82 streptomycin in the presence or the absence of 4 μg/ml tetracycline (Sigma, T7660). 83 84 Cell synchronization - Cell synchronization was performed by double thymidine block- 85 release protocol 2 or nocodazole treatment 3 and verified by flow cytometry. 86 87 Cell viability assays - Compounds viability upon 48h treatment with the compounds was 88 assessed as described 4. Data were plotted with Prism 7® and analyzed by non-linear 89 regression. Comparison of single curve fitting to all data set within an experiment was 90 performed with the extra sum-of-squares F-test to determine P values. 91 92 Western blotting - Cell lysis and immunoblot analysis were performed as previously 93 described 5. […] Cells were washed with PBS, resuspended […] To 100 quantify phosphorylation of CDK1 at Tyr15 and H2AX at S139, cells were harvested and 101 examined as described 6. Samples were measured on an AttuneTM NxT Cytometer 102 (ThermoFisher Scientific, Carlsbad, CA, USA) and data were analyzed with FlowJo® 103 software v10 (FlowJo, LLC, Ashland, OR, USA). 104 105 Real Time qRT-PCR - Organoids were lysed in Tri-Reagent (Sigma) as previously 106 described 7 and total RNA was isolated as described by manufacturer's instructions. For […] 108 High Fidelity cDNA Synthesis kit (Roche). Real-time quantitative PCR reactions were 109 performed in three independent biological replicates, each with technical triplicate, using 110 the Applied Biosystems SYBR Green Kit and monitored by the ABI Prism 7900HT 111 system (Applied Biosystem). The following primers were used: 112 Lgr5: Forward [NT] and Reverse 5'- […] 114 Lysozyme: Forward [NT] and Reverse 5'- 115 [NT]3' 116 Cryptdin: Forward [NT] and Reverse 5'- 117 [NT]-binding protein (TBP): Forward [NT] and 119 Reverse [NT] 120 […] 122 amplification curves and the melting temperature analysis of the final amplification […] 4
# [6] = test system: HeLa cells; assay: Cell viability assay on HeLa cells; type: cell-based; details: Homo sapiens, 48h treatment
# Protocol: 75 Cell culture - Wild-type HeLa and Kyoto HeLa cells stably expressing mCherry-H2B
# 76 were maintained in DMEM+L-Glutamine (Gibco, Life Technologies, USA)
# 77 supplemented with 5% fetal calf serum (FCS) (Gibco) and penicillin-streptomycin (100
# 78 U/ml - 100 µg/ml) (Gibco). […]
# 87 Cell viability assays - Compounds viability upon 48h treatment with the compounds was
# 88 assessed as described 4. Data were plotted with Prism 7® and analyzed by non-linear
# 89 regression. Comparison of single curve fitting to all data set within an experiment was
# 90 performed with the extra sum-of-squares F-test to determine P values. […]
# [7] = read-out: % remaining activity ± SD (Table S1, first round of selection)
"remaining activity at 20 µM ([1]; read-out: % remaining activity ± SD (Table S2, second round of selection)) [%]","mechanism of enzyme inhibition ([1]; kinetic analysis, mixed-model inhibition equation)",Ki ([1]; mixed-model inhibition equation) [nM],remaining activity (%) ([2]; UPD-795 1 µM),remaining activity (%) ([3]; UPD-795 1 µM),remaining activity (%) ([4]; UPD-795 1 µM),Compound,IC50 [1] [nM],progression through S-phase [5],effect on cell cycle distribution (DNA content) [5],"remaining activity at 20 µM [1, 7] [%]",IC50 [6] [nM],"effect on the G1/S transition ([5]; HeLa synchronized at G2/M, 10 μM added in mid-G1, analysed 12 h post-release)",effect on the G2/M transition [5],remaining activity (%) ([2]; UPD-140 1.5 µM),remaining activity (%) ([3]; UPD-140 1.5 µM),remaining activity (%) ([4]; UPD-140 1.5 µM)
0,mixed mechanism of enzyme inhibition,1180 ± 400,85 ± 5,100,88 ± 1,"COc1cccc(SC2=CC(=O)c3cccc(O)c3C2=O)c1 [UPD-795, 2-(3-methoxyphenylthio)-8-hydroxynaphthalene-1,4-dione]",1250,progression through S-phase was effectively held in check,increase of the G1 population,,,,,,,
,,,,,,"O=C1C(c2ccc(O)cc2O)=CC(=O)c2c(O)cccc21 [UPD-176, 5-hydroxy-2-(2,4-dihydroxyphenyl)naphthalene-1,4-dione]",,progression through S-phase was effectively held in check,accumulation of cells at G2/M,0,1080,effectively blocked cells in G1,accretion of the G2/M peak,,,
,,,,,,"O=C1C=C(c2ccc(O)cc2O)C(=O)c2c(O)cccc21 [UPD-140, 2-(2′,4′-dihydroxyphenyl)-8-hydroxy-1,4-naphthoquinone]",1420,,,0.1 ± 0.1,1200,,accretion of the G2/M peak,89,105 ± 4,89 ± 2
